Measured values taken from patent publication US20230348394A1, “COMPOSITIONS AND METHODS FOR TREATING MUSCULAR DYSTROPHIES” (The Regents of the University of California, priority 2020, published 2023).

Legend:
[1] = Preliminary safety assessment, IP injection in C57/B16 mice; format: in vivo
Description: For the preliminary safety assessment of OT-9, we performed IP injections in 6 month old C57/B16 males. The mice were injected with 100 μl of vehicle (5% DMSO (Sigma), 95% PBS), 100 μl of 30 mg/kg of OT-9 in vehicle, or 100 μl of 50 mg/kg of OT-9 in vehicle (n=1 mouse per treatment). […] For assessment of activity, 20-weeks old male mdx littermates were injected in both tibialis anterior muscles with vehicle (5% DMSO, 95% PBS) or 86 μg of OT-9. Two mice were injected in both TAs with vehicle and three mice were injected in both TAs with 200 of OT-9 (9.4 mM solution containing 86 μg of OT-9). After 4 hours, the muscles were harvested and processed for gene expression analysis. For assessment of activity of OT-9m after local administration, 19-22-weeks old mdx males were injected in both tibialis anterior muscles with vehicle (5% DMSO, 95% PBS) or 3 mg/kg and 10 mg/kg of OT-9m. After 4 hours, the muscles were harvested and processed for gene expression analysis. For assessment of activity of OT-9m after systemic administration, 13-weeks old mdx males were injected subcutaneously with vehicle (4% PEG-200 in hydroxypropyl-b-cyclodextrin) or 20 mg/kg/day of OT-9m. After 13 days of treatment, the muscles were harvested and processed for gene expression analysis.
To evaluate the in vivo safety and activity of OT-9, we performed two pilot studies in wild-type C57/B16 and mdx mice. For the preliminary safety assessment of OT-9, we performed IP injections in 6-month old C57/B16 males. The mice were injected with vehicle, 30 mg/kg of OT-9, or 50 mg/kg of OT-9 (n=1).

[2] = Half-life analysis in PBS pH 7.4; format: physicochemical; conditions: PBS pH 7.4, 37° C.
Description: Half-life analysis was performed by Eurofins Panlabs Inc. using 1 μM of compound with a final DMSO concentration of 0.5%. PBS or plasma from CD-1 mice was pre-warmed to 37° C. for 5 mins before addition of the test compounds and continued incubation at 37° C. At 0, 30, 60, 120, 240, and 1440 mins an aliquot of solution containing compounds was mixed with acetonitrile/methanol, mixed, and centrifuged. The supernatants were used for HPLC-MS/MS analysis.

[3] = test system: SSPN-HiBiT protein (sarcospan); experiment: C2C12 SSPN-HiBiT protein reporter assay (12-well and 384-well format); format: cell-based, murine
Description: C2C12 SSPN-HiBiT myoblasts were seeded at 25,000 cells per well in 2 ml of growth media in 12 well-plates and incubated for 3 days. Upon reaching confluency, the growth media was replaced with 2 ml of differentiation media. At day 2 of differentiation, the media on the cells was replaced with 2 ml of differentiation media containing compounds at a final concentration of 5.5 μM in 0.06% DMSO. For vehicle control-treated cells, 0.06% DMSO was added to the cells. After 48 hrs the cells were washed with PBS and frozen for 2-24 hrs. The plates containing cells were thawed on ice and 100 μl of ice-cold modified RIPA buffer containing 1% Triton X-100, 0.05% DOC, 0.05% SDS, and Halt Protease Inhibitor was added to each well. Cells were scratched, transferred into 1.5 ml tubes, and centrifuged for 20 min at 16,000×g at 4° C. The cell lysates were transferred into new tubes. DC assay was performed on cell lysates to determine protein concentration. White walled, white bottom 384-well microplates (Greiner) were prefilled with 15 μl of PBS and 15 μl of cell lysates were added to each well in triplicate. Then 30 μl Nano-Glo HiBiT Lytic Detection working solution was added to each well and incubated for 30 min at RT with shaking. The luminescence was measured on the EnVision plate reader and the signal was normalized to protein concentration and signal from vehicle-treated controls.
C2C12 SSPN-HiBiT myoblasts were seeded at 500 cells per well in 50 μl of growth media in 384-well white, clear bottom microplates (Greiner) and incubated for 3 days. Upon reaching confluency, the growth media was replaced with 50 μl of differentiation media consisting of phenol-red free DMEM with 2% horse serum (Sigma-Aldrich) using an EL406 combination washer dispenser (Biotek). At day 2 of differentiation, the media on the cells was aspirated, left with a residual volume of 10 μl, and replaced with 30 μl of fresh differentiation media. 0.5 μl of small molecule in DMSO or DMSO alone (for vehicle and positive control wells) were added to each well using a Biomek Fx (Beckman). To ensure proper mixing of the DMSO, 50 μl of additional differentiation media was added to all wells except the positive control treated wells. The final concentration of compound in each treated well was 0.5-10 μM in 0.55% DMSO and 0.55% DMSO only for vehicle. After 48 hrs of incubation, the plate was washed with phenol red-free DMEM, aspirated, and left with a residual volume of 5 μl using EL406 combination washer dispenser. After the wash, 25 μl of differentiation media containing 12 μM DRAQ5 nuclear stain was added to reach a final concentration 10 μM in each well and incubated for 15 min at 37° C. with 5% CO2. The cells were imaged using ImageXpress Micro Confocal High Content Imaging System (Molecular Devices). The nuclei count of imaged cells were determined using a custom module analysis in MetaXpress Analysis software (Molecular Devices). After imaging and analysis, the plate was aspirated, left with a residual volume of 5 μl and placed at −80° C. for 2-24 hrs. The plate was thawed at RT and 25 μl of PBS was added, followed by 30 μl of Nano-Glo HiBiT Lytic Detection working solution prepared according manufacturer recommendations. Luminescence was measured using the EnVision plate reader and the signal of each well was normalized to nuclei count and signal from vehicle-treated controls.
In order to effectively test new analogues, we created method for detecting SSPN protein in cells, e.g., SSPN-HiBiT. SSPN-HiBiT based on a murine C2C12 cell line expressing endogenous SSPN protein with an N-term fusion protein called the HiBiT, an 11 amino acid subunit of a luciferase enzyme (FIG. 10a). The SSPN-HiBiT protein is quantified through addition of substrate and a larger subunit of the luciferase enzyme to catalyze the formation of luminescent signal. […]

[4] = IP 30 mg/kg or 50 mg/kg, observed 72 hours, n=1

- half-life at 1 μM [2]: 49 min
SMILES: CCN(CC)c1ccc2cc(C(=O)Nc3ccc(C(=O)N4CCCCCC4)cc3)c(=O)oc2c1 [OT-9]
- appearance of the dosing solution ([1]; 50 mg/kg solution in 5% DMSO, 95% PBS): some insoluble particles were observed
- liver, kidneys, pancreas and intestine [1, 4]: normal weight and size
- observation of the injection site [1, 4]: No signs of inflammation, necrosis or compound accumulation
- SSPN-HiBiT reporter response ([3]; 0.5-10 μM, 12-well and 384-well plate formats): dose-sensitive increases in SSPN
- SSPN-HiBiT, fold change over vehicle ([3]; Table 1, *p<0.05): 2.29* fold change over vehicle
